Results from US20090210952A1, “Compositions and Methods Related to Controlled Gene Expression Using Viral Vectors” (priority 2005, published 2009).

Tests used:
GFP expression = test: DOX concentration required to induce GFP expression in infected cells (fluorescent microscopy); type: cell-based; settings: within 48 hours; cells infected with viral particles from pHReGFPO2/EFtet/blas
Experimental: To determine the DOX concentration required to induce gene expression in the single vector system, different concentration of DOX were added to cells infected with viral particles derived from pHReGFPO2/EFtet/blas (titer 2.5×10^6/ml). GFP expression was monitored by fluorescent microscopy.

[1] = tested on: transgenic mice containing a tet regulatable system; settings: previous study; cited from earlier work
transgenic mice = test: Induction of eGFP expression in transgenic mice by drinking water containing DOX; type: in vivo, mouse
Experimental: To determine whether the inducible constructs could induce eGFP expression in vivo, the transgenic mice were fed drinking water containing 100 μg/ml DOX. GFP expression in the body (paw) and PBMCs was analyzed by fluorescent microscopy and FACS analysis before and after the transgenic mice were fed DOX.
A previous study reported that a DOX concentration of 0.1-10 mg/ml in the drinking water of transgenic mice containing a tet regulatable system, was required for inducible gene expression within the animal. To determine the concentration of DOX required for inducible expression of GFP in the transgenic mice described above, the F1 mice from CAG-founder 6# were divided into the four groups which were fed drinking water containing different concentrations of DOX including 0 ug/ml (Group 1), 4 ug/ml (Group 2), 20 ug/ml (Group 3), and 100 ug/ml (Group 4). GFP expression was monitored by visualizing GFP expression in the fingers of the transgenic mouse under UV light after 0, 1, 2, 3, 5 and 18 days of feeding the mice DOX. The intensity of the fluorescent signal in the fingers of the tested mice over the course of the experiment was observed. […] The intensity of the fluorescent signal for Groups 3 and 4 expressed their highest level of GFP expression after 5 days of DOX feeding. In addition, 4 ug/ml of DOX fed to the mice of Group 2 mice was sufficient to induce GFP expression, however the induction was delayed and the intensity was relatively weak as compared to Group 3 and 4 mice. Also of note is that the intensity of a fluorescent signal appeared in a does-dependent manner.
Using the FACS, positive blood cells expressing GFP were isolated and quantified. […] For all mice of Groups 2, 3 and 4, both the number and intensity of GFP expressing cells increased after the mice were fed DOX.
To determine the pharmacokinetics of DOX, 43% of the blood cells expressed GFP from Group 4 mice (after 18 days of DOX feeding), this level was used to set the threshold of 100 percent induction.

## C[C@H]1c2cccc(O)c2C(O)=C2C(=O)[C@]3(O)C(O)=C(C(N)=O)C(=O)[C@@H](N(C)C)[C@@H]3[C@@H](O)[C@@H]21 [DOX, doxycycline]
GFP expression
  DOX sufficient to induce GFP expression: 15 ng
[1]
  DOX concentration in the drinking water required for inducible gene expression: 0.1 to 10 mg/mL
Transgenic mice; 20 ug/ml and 100 ug/ml DOX (Group 3 and Group 4)
  time of DOX feeding until mice began to express GFP: 1 days
Transgenic mice; 20 ug/ml and 100 ug/ml DOX (Groups 3 and 4)
  time of DOX feeding to highest level of GFP expression: 5 days
Transgenic mice; F1 mice from CAG-founder 6#, fingers under UV light, induction delayed, intensity relatively weak
  DOX concentration in drinking water sufficient to induce GFP expression: 4 µg/mL
Transgenic mice; Group 4 (100 ug/ml DOX), after 18 days of DOX feeding, FACS
  blood cells expressing GFP: 43%
